Experimental data from patent US20090042991A1, “Methods of increasing natural killer cell activity for therapy” (priority 2005, published 2009).
Where “and” joins values, the source holds several entries; their conditions need not be identical. Equal entries are not always repeated. Entries after “also recorded” stand apart in the source; their conditions may differ.

Key:
[1] = Phase 1/2 lung carcinoma study: safety; assay type: in vivo, human
Experimental: Phase 1 (safety/PK/MTD (maximum tolerated dose) was followed by a Phase 2 randomized two arm portion. Two dose levels were evaluated in Phase 1.
Dosing was IV q 3 weeks for up to 6 cycles in the absence of dose-limiting toxicity or progression. […] The phase 2 primary endpoint is time to progression, with secondary endpoints of response rate, survival, and quality of life. Study pharmacodynamic parameters include NK cell activity and Hsp70 level.

Melanoma study: safety = assay type: in vivo, human
Experimental: The higher tolerated dose level was expanded to a total of 20 patients (Stage 1).
(§1) The study will continue to Stage 2 if 7 or more patients have a response of stable disease or better, or at least 2 patients have a partial response or better. A safety assessment was performed with the first 6 patients enrolled as the weekly dose schedule had not previously been studied in humans. The primary endpoint is non-progression rate (NPR) at 3 months and response rate. Pharmacodynamic parameters include pre and post-dose NK cell activity in blood and when possible, tumor biopsies.

[2] = Phase I trial: pharmacokinetics in plasma by LC/MS
Experimental: Pharmacokinetic (PK) studies were performed during cycle 1 using liquid chromatography/mass spectrometry (LC/MS) to measure both compounds in plasma. Heat shock protein 70 (Hsp70) was measured in plasma before and after treatment.

NK cell activity = assay: NK cell cytotoxic activity of patient PBMC (K562/eGFP flow cytometry), melanoma study; assay type: in vivo, human; conditions: for % tumor cell lysis pre-dose: baseline before dosing
Text: The following procedure can be employed to assay NK cell activity in a subject. The procedure is adapted from Kantakamalakul W, Jaroenpool J, Pattanapanyasat K. A novel enhanced green fluorescent protein (EGFP)-K562 flow cytometric method for measuring natural killer (NK) cell cytotoxic activity. J Immunol Methods. 2003 Jan. 15; 272:189-197, the entire teachings of which are incorporated herein by reference.
Materials and methods: Human erythroleukaemic cell line, K562, was obtained from American Type Culture Collection (CCL-243, American Type Culture Collection, Manassas, Va.), and cultured in RPMI-1640 medium (Cat#1875-093Gibco Invitrogen Corp, Carlsbad, Calif.) supplemented with 10% heat inactivated fetal calf serum (Gibco), 2 mM L-glutamin, 100 μg/ml streptomycin and 100 IU/ml penicillin at 37° C. with 5% CO2. K562 cells were transduced with retroviral vector which encode green fluorescent protein (eGFP). Stable cell line was selected with antibiotic, G418.
The subject's peripheral blood mononuclear cells (PBMCs) were prepared by clinical study sites and received in BD Vacutainer Cell Preparation Tube with sodium heparin (Product Number: 362753, Becton Dickinson, Franklin Lakes, N.J.).
Effector cells alone and target cells alone were used as controls. All tubes were incubated at 37° C. with 5% CO2 for about 3.5 hr. Ten microliters of propidium iodide (PI) at a concentration of 1 mg/mL was added t each tube including effector and target control tubes and then incubated at room temperature for 15 min.
Cytotoxic activity was analyzed with a FACSCalibur flow cytometer (Becton Dickinson). Linear amplification of the forward and side scatter (FSC/SSC) signals, as well as logarithmic amplification of eGFP and PI emission in green and red fluorescence were obtained. Ten thousand events per sample tube with no gating for acquisition were collected for analysis. Data analysis for two-parameter dot plots for eGFP versus PI was performed using CELLQuest (Becton Dickinson Biosciences) software to enumerate live and dead target cells. Debris and dead cells were excluded by setting a threshold of forward light scatter.
as §1
Best Response indicates an evaluation of the patient's tumor: SD indicates less than 20% of an increase and less than 30% of a decrease in the sum of the longest diameters as compared to baseline; and PD=at least a 20% increase in the sum of the longest diameters as compared to baseline. NK Activity indicates the change in NK activity before and after dosing.

[3] = tested on: advanced metastatic melanoma; assay: 2 stage Phase 2 study: tumor response with paclitaxel; assay type: in vivo, human; conditions: for Best Response cycle 2 week 4: one value per subject
Experimental: as §1, with “The higher tolerated dose level was expanded to a total of 20 patients (Stage 1). The study” for “The study”, “tumor biopsies. […] Best Response indicates an evaluation of the patient's tumor: SD indicates less than 20% of an increase and less than 30% of a decrease in the sum of the longest diameters as compared to baseline; and PD=at least a 20% increase in the sum of the longest diameters as compared to baseline. NK Activity indicates the change in NK activity before and after dosing.” for “tumor biopsies.”

[4] = Paclitaxel 80 + Cmpnd (1) 106 mg/M^2 weekly, Effector/Target 80:1, one value per subject
[5] = Paclitaxel 80 + Cmpnd (1) 213 mg/M^2 weekly, Effector/Target 80:1, one value per subject
[6] = Paclitaxel 80 + Cmpnd (1) 213 mg/M^2 weekly, Effector/Target (40:1), subject 15

CN(NC(=O)CC(=O)NN(C)C(=S)c1ccccc1)C(=S)c1ccccc1 [Compound (1)]
serious effects specifically attributable to Compound (1) (35 patients, 8 dose levels, with paclitaxel IV every 3 weeks): No serious effects
tolerability of the combination (Phase I, with paclitaxel, adverse events consistent with those expected for paclitaxel alone): well-tolerated
first cycle dose-limiting toxicities ([1]; Phase 1, Cohorts 1 and 2, 16 patients, with carboplatin AUC 6 and paclitaxel): No first cycle dose-limiting toxicities
adverse effects (AEs) ([1]; Phase 1, usually Grade 1-2, with carboplatin and paclitaxel): arthralgia and myalgia, peripheral neuropathy, rash, nausea, and vomiting, fatigue, alopecia, edema, dehydration, constipation, and decreased blood counts
tolerability of carboplatin:paclitaxel:Compound (1) combination ([1]; at the dose levels studied, safety profile similar to carboplatin:paclitaxel alone): well tolerated
adverse events (Melanoma study: safety; Stage 1, with paclitaxel 80 mg/m2 weekly): as expected for paclitaxel chemotherapy administration
dose-limiting toxicities (Melanoma study: safety; initial safety assessment, Compound (1) 106 or 213 mg/m2 with paclitaxel 80 mg/m2 weekly): absence of dose-limiting toxicities
tolerability of the combination therapy (Melanoma study: safety; weekly schedule with paclitaxel): well-tolerated
PK linearity ([2]; Compound (1) 44-525 mg/m2, unaffected by paclitaxel dose): linear PK
terminal-phase half life ([2]; human plasma, IV over 3 hours co-administered with paclitaxel, cycle 1): 56.4 ± 13.8 min
% tumor cell lysis post-dose (NK cell activity; Paclitaxel 80 + Cmpnd (1) 106 mg/M^2 weekly, 7 days after second dose, Effector/Target 80:1, one value per subject): 7.74% and 2.43%
NK activity (change before and after dosing) (NK cell activity; [4]): increase; also recorded: decrease
% tumor cell lysis post-dose (NK cell activity; Paclitaxel 80 + Cmpnd (1) 213 mg/M^2 weekly, 7 days after second dose, Effector/Target 80:1, one value per subject): 10.77% and 19.78% and 26.52% and 8.64% and 18.77% and 5.2% and 26.31% and 7.2%
NK activity (change before and after dosing) (NK cell activity; [5]): increase; also recorded: no change; also recorded: decrease
% tumor cell lysis post-dose (NK cell activity; [6]): 10.01%
NK activity (change before and after dosing) (NK cell activity; [6]): (increase)
% tumor cell lysis pre-dose (NK cell activity; [4]): 2.32% and 6.13%
% tumor cell lysis pre-dose (NK cell activity; [5]): 3.83% and 19.71% and 41.61% and 8.6% and 24.76% and 16.49% and 15.4% and 10.81%
% tumor cell lysis pre-dose (NK cell activity; [6]): 3.5%
patients with statistically significant increase in NK cell activity pre- to post-dose (NK cell activity; original patients of Table 3): four of the original patients
non-progression rate (NPR) at 3 months ([3]; 20 evaluable patients, Stage 1): 55%
Best Response cycle 2 week 4 ([3]; Paclitaxel 80 + Cmpnd (1) 106 mg/M^2 weekly): SD (less than 20% of an increase and less than 30% of a decrease in the sum of the longest diameters as compared to baseline); also recorded: PD (at least a 20% increase in the sum of the longest diameters as compared to baseline)
Best Response cycle 2 week 4 ([3]; Paclitaxel 80 + Cmpnd (1) 213 mg/M^2 weekly): SD (less than 20% of an increase and less than 30% of a decrease in the sum of the longest diameters as compared to baseline); also recorded: PD (at least a 20% increase in the sum of the longest diameters as compared to baseline)
patients stable at 3 months ([3]; of 20 evaluable patients, Stage 1): 11 patients
patients with at least a 20% increase in sum of longest diameters (PD) ([3]; patients completing the study (#12-#20, #22)): seven patients
